Like-named read-outs stand apart in the source and are kept apart here. Where no end group is shown, it is not given here. The star is where a group is joined. FITC = O=C1OC2(c3ccc(O)cc3Oc3cc(O)ccc32)c2ccc(NC(=S)*)cc21
Tests used:
[1] = tested on: Raw 264.7 cells; assay: Immunogenicity assay (IL-6 release, ELISA); type: cell-based, Murine; conditions: 24 h; AA3H 10 μM or LPS 10 μg/mL; mouse IL-6 ELISA; average of three; non-treated control 20 pg/mL
Method: Raw 264.7 cells were seeded into 24-well plates and cultured for 24 h. Cells were grown to 80% confluence and treated with lipopolysaccharides (LPS, 10 μg/mL) as a positive control. After incubation of AA3H peptide (10 μM) with cells for 24 h, supernatants were transferred to 1.5 mL tubes and centrifuged at 10,000 × g for 10 min at 4 °C. For the detection of interleukin-6 (IL-6) a mouse IL-6 ELISA kit (Thermo Scientific, Waltham, MA, USA) was used. Results from triplicate experiments were analyzed by Prism software (GraphPad, La Jolla, CA, USA). Data are presented as mean ± standard deviation (SD).

[2] = tested on: HeLa cells; assay: Cellular uptake of FITC-labeled CPPs by flow cytometry; type: cell-based, Human; conditions: for order of potency in intracellular translocation (dose-dependent uptake): 0, 0.5, 1, 2.5, 5 and 10 μM; for order of potency in intracellular translocation (dose-dependent uptake) / cellular uptake efficiency: average of three independent experiments; for cellular uptake efficiency: 1 μM peptide, flow cytometry MFI, serum-containing DMEM, 37 °C
Method: For assessing the uptake of CPP candidates by HeLa cells, cells were seeded onto 6-well plates (1.0 × 10^6 cells/well). […] Cells were washed two times with phosphate-buffered saline (PBS), incubated in trypsin-EDTA solution (0.01% trypsin) at 37 °C for 10 min to digest extracellular proteins, washed two times with ice-cold PBS, and finally resuspended in 500 μL of ice-cold PBS for flow cytometry assays. For endocytosis inhibitor treatments, cells were pre-incubated with various inhibitors (50 μg heparin, 50 μM CPZ, 100 μM CQ, 1 mM MβCD, 30 μg dynasore, or 50 μM EIPA) in serum-containing medium for 30 min before AA3H (1 μM) was added. The sample for flow cytometry analysis was prepared as described above. For the analysis of peptide internalization, a GUAVA flow cytometry system (Merck Millipore, Darmstadt, Germany) with the FL-1 channel for measuring fluorescence in GuavaSoft 2.6 was used according to the manufacturer’s instructions.

[3] = tested on: HeLa cells; assay: Cellular uptake mechanism of AA3H (heparin, low temperature, endocytosis inhibitors), flow cytometry; type: cell-based, Human
Method: For assessing the uptake of CPP candidates by HeLa cells, cells were seeded onto 6-well plates (1.0 × 10^6 cells/well). After 24 h, cells were washed two times with serum-free DMEM and incubated with CPPs at indicated concentrations (0.1, 1, 10 μM) in serum-containing DMEM at 37 °C. Cells were washed two times with phosphate-buffered saline (PBS), incubated in trypsin-EDTA solution (0.01% trypsin) at 37 °C for 10 min to digest extracellular proteins, washed two times with ice-cold PBS, and finally resuspended in 500 μL of ice-cold PBS for flow cytometry assays. For endocytosis inhibitor treatments, cells were pre-incubated with various inhibitors (50 μg heparin, 50 μM CPZ, 100 μM CQ, 1 mM MβCD, 30 μg dynasore, or 50 μM EIPA) in serum-containing medium for 30 min before AA3H (1 μM) was added. The sample for flow cytometry analysis was prepared as described above. For the analysis of peptide internalization, a GUAVA flow cytometry system (Merck Millipore, Darmstadt, Germany) with the FL-1 channel for measuring fluorescence in GuavaSoft 2.6 was used according to the manufacturer’s instructions.

[4] = tested on: HeLa cells; assay: Intracellular uptake of CPPs in the presence or absence of serum, flow cytometry; type: cell-based, Human; conditions: peptide 1 μM, with or without 10% mouse serum, 4 h
Method: Samples were prepared as described for cellular uptake above.

[5] = Liposome experiment (interaction of FITC-labeled AA3H with phospholipid liposomes); type: binding; conditions: liposomes in HBS pH 7.5, 4 h at room temperature, flow cytometric analysis (Supplementary Fig. S3)
Method: Liposome experiment. Phospholipids dissolved in chloroform (L-alpha-phosphatidylcholine: PC, L-alpha-phosphatidylserine: PS, and L-alpha-phosphatidylethanolamine: PE) were purchased 1 from Avanti Polar Lipids. Liposomes were prepared by following a reported procedure . After preparation of phospholipid mixtures with appropriate molar ratios (PC/PS: 8/2 and PC/PE/PS: 4/4/2), the mixtures were dried by removing the solvent. The residues were dissolved in HBS (20 mM HEPES/NaOH, pH 7.5, 100 mM NaCl, 0.02% (w/v) sodium azide) and vortexed to completely resuspend phospholipids. Then, the suspension was sonicated until to have clear solution. The prepared vesicles was incubated with AA3H-CPP (FITC labelled) for 4 h at room temperature and the mixture was centrifuged at 16,000×g for 10 min at 4°C before flow cytometric analysis.
Supplementary Fig. S3. (A) Sizes of liposomes determined by dynamic light scattering. (B) Flow cytometric analysis on the interaction between FITC-labeled AA3H and liposomes. […]

[6] = tested on: cells; assay: Uptake kinetics (half-time of internalization); type: cell-based; conditions: uptake kinetics of AA3H
[7] = tested on: HeLa cells; assay: Subcellular localization by confocal fluorescence microscopy; type: cell-based, Human; conditions: AA3H 1 μM, 4 h, organelle-specific staining
Method: To visualize the cellular uptake of a peptide using confocal fluorescence microscopy, HeLa cells were seeded onto confocal bottom dish 35-mm plates (SPL, Gyeonggi-do, Korea) and incubated with AA3H (1 μM) for 4 h. Lysosomes and nuclei of AA3H-treated cells were stained with LysoTracker (Life Technologies, Carlsbad, CA, USA; 1 μg/mL for 30 min) and Hoechst (1 μg/mL for 5 min), respectively. For staining ER and Golgi, CellLight Reagents BacMam 2.0 (Life Technologies, Carlsbad, CA, USA) were used. Cells were cultured in confocal dishes for 24 h, transfected with red fluorescence protein (RFP) for 24 h, and treated with AA3H (1 μM) for 4 h. After washing two times with PBS, the intracellular fluorescence of HeLa cells was imaged using confocal laser scanning microscopy (LSM 700, Carl Zeiss, Jena, Germany).

[8] = tested on: cells; conditions: uptake kinetics of TAT; cited from earlier work

lipopolysaccharide [LPS]
IL-6 released into the culture medium [1]: 373 pg/mL

{FITC}-MAQVLRGTVT [AA5H, FITC-labeled N-terminus peptide of an annexin A isoform]
order of potency in intracellular translocation (dose-dependent uptake) ([2]; HeLa cells, flow cytometry): AA3H > AA5H > AA8H > AA13H > AA4H
cellular uptake efficiency ([2]; HeLa cells): significant cellular uptake efficiency

{FITC}-RRRQQQQQQRRR [PLP, protein linking peptide containing multiple arginine residues, FITC-labeled]
cellular uptake of PLP-conjugated CPPs ([2]; flow cytometry, fluorescence label of the peptide (Fig. 8B)): not as high as with AA3H conjugation

{FITC}-MASIWVGHRG [AA3H]
decrease of intracellular delivery after heparin sulfate ([3]; 50 μg/mL heparin sulfate 30 min pre-treatment, then AA3H 4 h, relative to delivery without heparin, average of three): 45%
cellular uptake at 4 °C lower than at 37 °C ([3]; 4 °C for 2 h vs 37 °C control, flow cytometry): approximately 66%
decrease of uptake with dynasore ([3]; 30-min pre-treatment, 30 μg dynasore, AA3H 1 μM): 57%
decrease in uptake with chlorpromazine (CPZ) ([3]; 30-min pre-treatment, 50 μM CPZ, AA3H 1 μM, serum-containing medium): 23.5%
effect of EIPA (macropinocytosis inhibitor) on peptide delivery ([3]; 30-min pre-treatment, 50 μM EIPA, AA3H 1 μM): significant inhibition of peptide delivery
increase in mean fluorescence intensity with chloroquine (CQ) ([3]; 30-min pre-treatment, 100 μM CQ, AA3H 1 μM, ascribed to dequenching of fluorescein, not to uptake): 20.5%
reduction of uptake with methyl-β-cyclodextrin (MβCD) ([3]; 30-min pre-treatment, 1 mM MβCD, AA3H 1 μM): 32%
reduction of uptake with nystatin (NYS) ([3]; 30-min pre-treatment, AA3H 1 μM): 15%
delivery efficiency in the presence of serum [4]: not considerably affected
binding to phospholipids known to interact with annexin III [5]: found to also bind AA3H
order of potency in intracellular translocation (dose-dependent uptake) ([2]; HeLa cells, flow cytometry): AA3H > AA5H > AA8H > AA13H > AA4H
cellular uptake efficiency ([2]; HeLa cells): significant cellular uptake efficiency
cellular uptake compared with the fully cationic R9 peptide ([2]; HeLa cells (Supplementary Fig. S1A)): much lower cellular uptake
uptake efficiency compared with TAT ([2]; HeLa cells, flow cytometry (Fig. 2C)): delivered into the cells better than TAT
t0.5 (half-time of internalization) [6]: ~ 2 h
subcellular localization [7]: localized in the cytoplasm but not in the nucleus

{FITC}-MGNRHAKASS [AA13H, FITC-labeled N-terminus peptide of an annexin A isoform]
order of potency in intracellular translocation (dose-dependent uptake) ([2]; HeLa cells, flow cytometry): AA3H > AA5H > AA8H > AA13H > AA4H
cellular uptake efficiency ([2]; HeLa cells): significant cellular uptake efficiency

{FITC}-MATKGGTVKA [AA4H, FITC-labeled N-terminus peptide of an annexin A isoform]
order of potency in intracellular translocation (dose-dependent uptake) ([2]; HeLa cells, flow cytometry): AA3H > AA5H > AA8H > AA13H > AA4H
cellular uptake efficiency ([2]; HeLa cells): significant cellular uptake efficiency

{FITC}-MAWWKSWIEQ [AA8H, FITC-labeled N-terminus peptide of an annexin A isoform]
order of potency in intracellular translocation (dose-dependent uptake) ([2]; HeLa cells, flow cytometry): AA3H > AA5H > AA8H > AA13H > AA4H
cellular uptake efficiency ([2]; HeLa cells): significant cellular uptake efficiency

FITC-YGRKKRRQRRR [TAT47-58, widely used conventional CPP, TAT peptide of human immunodeficiency virus, FITC-labeled, reference compound]
delivery efficiency in the presence of serum [4]: significantly lowered efficiency
t0.5 (half-time of internalization) [8]: 1 min
